From paper PMC9728158, “Two Flavonoid-Based Compounds from Murraya paniculata as Novel Human Carbonic Anhydrase Isozyme II Inhibitors Detected by a Resazurin Yeast-Based Assay” (Journal of Microbiology and Biotechnology, 2019)

Biological target: T1, human carbonic anhydrase isozyme II (hCAII) (Homo sapiens, UniProt P00918)
T1 construct: gene CA2
Test: in vitro esterase assay (4-NPA hydrolysis, […] nm); also yeast-based hCAII assay
Format: biochemical

SMILES | IC50 [µM]
COc1cc(-c2oc3c(OC)c(OC)cc(OC)c3c(=O)c2OC)cc(OC)c1OC [compound 9, 3,5,7,8,3′,4′,5′-Heptamethoxyflavone] | 34.3
COc1cc(-c2cc(=O)c3c(OC)c(OC)c(OC)c(OC)c3o2)cc(OC)c1OC [compound 4, 5,6,7,8,3′,4′,5′-heptamethoxyflavone] | 24
